# Patent US20020081686A1 (priority 1999, published 2002)
# Tested on: PPK2
# Details: 1 mM Pi
# From the text: PPK2 has been detected in crude cell extracts of K.pneumoniae and E. coli.
substance,measurement,value
phosphate,inhibition of PPK2,about 90%
